Data as given in patent publication US20100197584A1, “USE OF CURCUMIN TO BLOCK BRAIN TUMOR FORMATION IN MICE” (Research Foundations of the City University of- New York, priority 2007, published 2010).

How the values were obtained:
[1] = system: B16F10 (mouse melanoma) cells; assay: Caspase-3/7 assay in B16F10 cells; format: cell-based; details: 20 μM and 50 μM, 48 h or 96 h (FIG. 1)
Procedure: (§1) Cells. B16F10 (mouse melanoma), GL261 (mouse glioma), HOG (human oligodendroglioma), A549 (human lung cancer), and […] (mouse neuroblastoma) cells were cultured separately in DMEM containing 10% (v/v) fetal bovine serum and 1% (v/v) penicillin-streptomycin (PS) and allowed to grow to 40% confluence in a 96-well plate. Curcumin Treatment. Two hours before drug treatment, the medium in each well was replaced with 200 μl Neurobasal medium supplemented with 2% (v/v) B27 and 1% (v/v) PS (Drug-treatment Medium). A stock solution (40 mM) of curcumin was prepared in sterile dimethyl sulfoxide (DMSO) (Example 1). Through serial dilution of each stock solution in Drug-treatment Medium, the following concentrations were obtained: 20 μM and 50 μM (for caspase 3/7 assays) or 25 μM and 50 μM (for MTT assays). Drug-treatment Medium in each well was aspirated, and a drug solution of each concentration or carrier-containing medium (control) was added to triplicate wells of cells (50 μl/well). […] Additionally, the background absorbance was determined from parallel wells containing only the Drug-treatment Medium plus a particular concentration of the drug (no cells). […] Fluorescence in each well was measured using the FLx 800 plate reader (Bio-Tek Instruments, Winooski, Vt.) set at 485/20 nm excitation and 528/20 nm emission wavelengths and the sensitivity of 70. […]

[2] = system: N18 (mouse neuroblastoma) cells; assay: Caspase-3/7 assay in N18 cells; format: cell-based; details: 20 μM and 50 μM, 48 h or 96 h (FIG. 2)
Procedure: as §1

[3] = system: A549 (human lung cancer) cells; assay: Cell viability assay using MTT, A549; format: cell-based; details: 25 μM and 50 μM, 48 h or 96 h, versus control cells (FIG. 6d)
Procedure: Cells. B16F10 (mouse melanoma), GL261 (mouse glioma), HOG (human oligodendroglioma), A549 (human lung cancer), and N18 (mouse neuroblastoma) cells were cultured separately in DMEM containing 10% (v/v) fetal bovine serum and 1% (v/v) penicillin-streptomycin (PS) and allowed to grow to 40% confluence in a 96-well plate.
Curcumin Treatment. Two hours before drug treatment, the medium in each well was replaced with 200 μl Neurobasal medium supplemented with 2% (v/v) B27 and 1% (v/v) PS (Drug-treatment Medium). A stock solution (40 mM) of curcumin was prepared in sterile dimethyl sulfoxide (DMSO) (Example 1). Through serial dilution of each stock solution in Drug-treatment Medium, the following concentrations were obtained: 20 μM and 50 μM (for caspase 3/7 assays) or 25 μM and 50 μM (for MTT assays). […] Additionally, the background absorbance was determined from parallel wells containing only the Drug-treatment Medium plus a particular concentration of the drug (no cells).
Cell Viability Assay Using MTT (3-(4,5-Dimethylthiazolyl-2)-2,5-Diphenyltetrazolium Bromide). […] Absorbance was measured at 570 nm using a 96-well multi scanner auto-reader with the extraction buffer used as blank. For curcumin samples, the absorbance obtained from the corresponding curcumin plus medium samples was subtracted.

phospho-NF-κB = assay: Western blot of B16F10 cells, phospho-NF-κB; format: cell-based, mouse; details: 50 μM (FIG. 9)
Procedure: (§2) B16F10 cells were cultured in 10-cm plates and then treated in duplicate with carrier or curcumin (50 μM). Following treatment for appropriate time periods, the cells were washed with PBS, lysed in RIPA buffer (PBS containing 1% Nonidet P40, 0.5% sodium deoxycholate, 0.1% SDS, 0.5 mM Na3VO4 plus freshly added PMSF and protease inhibitor cocktail; Boeringer-Roche), and then 20 μg of lysate protein (per lane) were analyzed by SDS-10% PAGE and Western blot analysis. Antibody concentrations used were: anti-phospho-NF-κB (1:1000) (Santa Cruz Biotechnology, Santa Cruz, Calif.), anti-phospho-Akt (1:5000) (Cell Signaling, CA), anti-cyclin D1 (1:1000) (Cell Signaling, CA), anti-BclXL (1:500) (Santa Cruz Biotechnology), anti-VEGF (1:500) (Santa Cruz Biotechnology), and anti-β-actin (1:1000) (Sigma, St. Louis, Mo.).

phospho-Akt = assay: Western blot of B16F10 cells, phospho-Akt; format: cell-based, mouse; details: 50 μM (FIG. 9)
Procedure: as §2

BclXL = assay: Western blot of B16F10 cells, BclXL; format: cell-based, mouse; details: 50 μM (FIG. 9)
Procedure: as §2

ovarian cancer = details: orthotopic murine model of ovarian cancer (Lin et al. 2007); cited from earlier work
[4] = system: human pancreatic carcinoma cell lines; details: human pancreatic carcinoma cell lines (Li et al. 2004); cited from earlier work

For `COc1cc(/C=C/C(=O)CC(=O)/C=C/c2ccc(O)c(OC)c2)ccc1O` [curcumin], the caspase-3/7 activity [1] was “increased”, the caspase-3/7 activity [2] was “increased” and the “cell viability (MTT)” value [3] was “dramatic decrease”. For the same compound, the “phospho-NF-κB (Western blot)” value (phospho-NF-κB) was “suppression”, the “phospho-Akt (Western blot)” value (phospho-Akt) was “suppression” and the “BclXL (Western blot)” value (BclXL) was “suppression”. The tumor growth (ovarian cancer) was “reduces tumor growth” and the apoptosis [4] was “induces apoptosis”.
